Experimental findings from patent US10221178B2, “Purine inhibitors of human phosphatidylinositol 3-kinase delta” (MERCK SHARP & DOHME CORP., priority 2015, dated 2019) are described below.

A value given as a limit tells only on which side of the number the result lay.

As a reminder, the IC50 is the point on the concentration scale where inhibition reaches its midpoint. Low values mean greater potency, high ones weaker potency.

One assay concerns the target PI3Kdelta (Homo sapiens (Human), UniProt O00329). The assay can be described thus: HTRF PI3K biochemical assay, delta isoform. The settings on record: 0.3 nM enzyme, 100 uM ATP, 5 uM PIP2, form screened: Neutral. An excerpt:
(§1) HTRF PI3K Biochemical Assay to Measure Intrinsic Potency of Compound Inhibitors
(§2) The PI3-Kinase biochemical assays were developed to measure the intrinsic potency and compound dependent inhibition of the alpha, beta, delta, and gamma PI3K isoform enzymes.
(§3) This assay was developed and further optimized from a kit produced by Upstate (Millipore catalog #33-047) and has been configured for HTS (high throughput screening) and SAR screening. Briefly, this procedure exploits the exquisite specificity and high affinity binding of enzyme reaction substrate phosphatidyl(3,4,5)triphosphate (PIP3) to the GRP1 pleckstrin homology (PH) domain to generate the signal. In the absence of PIP3, an HTRF (Homogeneous Time-Resolved Fluorescence energy transfer) complex is formed consisting of europium (Eu)-labeled anti-GST, GSTtagged GRP1-PH domain, biotin-PIP3 and streptavidin conjugated APC. The native PIP3 produced by PI3-Kinase activity disrupts in a competitive manner the biotin-PIP3 from the PH domain, resulting in the loss of energy transfer (HTRF complex) and a decrease in the signal. The format of this assay is the same for all 4 isoforms of PI3K; the differences lie in the concentration of enzyme used to achieve robust assay window. The alpha, beta, and delta assays are run at 0.5, 1, and 0.3 nM enzymes and the gamma assay is run at 5 nM enzyme. The ATP concentration is 100 uM in the alpha, beta, and delta assays and 50 uM ATP in the gamma assay. All reactions are run at 5 uM PIP2.
(§4) Compounds are serially diluted (3-fold in 100% DMSO) across a 384-well polypropylene source plated from column 3 to column 12 and column 13 to column 22, to yield 10 concentration dose response for each test compound. Columns 1, 2, 23 and 24 contain either only DMSO or pharmacological known control inhibitor. Once titrations are made, 2.5 nL of the compounds on 384 well plates are reformatted and transferred by acoustic dispense in quadruplicates to a 1536 assay plate (Greiner) to assay across all four PI3K isoform enzymes.
(§5) The PI3-Kinase biochemical assay was optimized using the HTRF kit provided by Upstate (Millipore). The assay kit contains six reagents: 1) 4× Reaction Buffer; 2) native PIP2 (substrate); 3) Stop (EDTA); 4) Detection Mix A (Streptavidin-APC); 5) Detection Mix B (Eu-labeled Anti-GST plus GST-tagged PH-domain); 6) Detection Mix C. In addition, the following items were obtained or purchased; PI3Kinase (alpha 14-602, beta 14-603, gamma 14-558 and delta 14-604 from Upstate; Millipore), dithiothreitol (Sigma, D-5545), Adenosine-5′ triphosphate (InVitrogen, Cat#AS001A), native PIP3 (PI(3,4,5)P3, diC8, H^+, CELLSIGNALS, INC. Cat #907) DMSO (Sigma, 472301).
(§6) PI3Kinase Reaction Buffer is prepared by dilution the stock 1:4 with de-ionized water. DTT, PIP2 and Biotin-PIP3 were added to 1536 assay plate at a final concentration of 5 mM, […] on the day of use. Enzyme addition and compound pre-incubation are initiated by the addition of 1.25 ul of PI3K (at twice its final concentration) in the 1× reaction buffer to all wells using a BioRaptor. Plates are incubated at RT for 15 minutes. Reactions are initiated by addition of 1.25 ul of 2× substrate solution (PIP2 and ATP in 1× reaction buffer) using BioRaptor. Plates are incubated in humidified chamber at RT for one hour. Reactions are quenched by addition of 0.625 uL of stop solution to all wells using the BioRaptor. The quenched reactions are then processed to detect product formation by adding 0.625 uL of Detection Solution to all wells using the BioRaptor (Detection mix C, Detection Mix A, and Detection Mix B combined together in an 18:1:1 ratio prepared 2 hours prior to use). Following a one hour incubation in the dark, the HTRF signal is measured on the Envision plate reader set for 330 nm excitation and dual emission detection at 620 nM (Eu) and 665 nM (APC).
A general note: TR-FRET usually uses a lanthanide donor and a delayed reading to cut background.

The target in a further assay is PI3Kalpha (Homo sapiens (Human), UniProt P42336). Kind of assay: HTRF PI3K biochemical assay, alpha isoform (selectivity versus PI3Kalpha). The settings on record: relative ratio (PI3K-alpha IC50 value/PI3K-delta IC50 value); form screened: Neutral.
Chain of PI3Kalpha (P42336 whole entry, canonical isoform): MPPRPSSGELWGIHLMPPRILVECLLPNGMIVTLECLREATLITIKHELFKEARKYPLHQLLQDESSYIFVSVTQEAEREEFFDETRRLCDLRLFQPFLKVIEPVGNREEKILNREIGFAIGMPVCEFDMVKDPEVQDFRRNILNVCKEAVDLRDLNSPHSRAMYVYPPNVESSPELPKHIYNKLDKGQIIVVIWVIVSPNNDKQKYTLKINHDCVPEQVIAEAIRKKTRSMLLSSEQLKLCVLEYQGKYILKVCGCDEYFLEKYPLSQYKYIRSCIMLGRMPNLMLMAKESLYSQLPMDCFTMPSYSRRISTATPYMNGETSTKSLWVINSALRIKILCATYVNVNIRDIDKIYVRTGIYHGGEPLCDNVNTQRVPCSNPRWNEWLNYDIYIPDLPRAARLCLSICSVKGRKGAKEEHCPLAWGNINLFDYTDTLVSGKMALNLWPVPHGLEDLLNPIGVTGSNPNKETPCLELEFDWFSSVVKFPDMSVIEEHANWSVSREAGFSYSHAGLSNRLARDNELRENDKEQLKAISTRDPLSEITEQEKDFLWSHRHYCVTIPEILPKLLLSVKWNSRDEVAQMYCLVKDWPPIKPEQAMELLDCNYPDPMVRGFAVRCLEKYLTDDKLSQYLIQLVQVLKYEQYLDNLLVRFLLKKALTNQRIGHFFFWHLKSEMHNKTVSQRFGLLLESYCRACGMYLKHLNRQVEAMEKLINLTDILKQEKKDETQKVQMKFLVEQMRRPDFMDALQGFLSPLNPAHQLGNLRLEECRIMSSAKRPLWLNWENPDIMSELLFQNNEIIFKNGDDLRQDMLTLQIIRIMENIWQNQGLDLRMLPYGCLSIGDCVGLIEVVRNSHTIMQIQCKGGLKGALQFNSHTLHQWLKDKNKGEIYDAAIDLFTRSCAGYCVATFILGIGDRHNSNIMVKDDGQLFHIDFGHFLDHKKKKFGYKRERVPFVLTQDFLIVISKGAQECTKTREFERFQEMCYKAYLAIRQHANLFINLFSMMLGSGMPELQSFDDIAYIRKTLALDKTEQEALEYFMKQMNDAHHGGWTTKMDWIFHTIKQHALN
Chain of PI3Kalpha (P27986 whole entry partner, canonical isoform): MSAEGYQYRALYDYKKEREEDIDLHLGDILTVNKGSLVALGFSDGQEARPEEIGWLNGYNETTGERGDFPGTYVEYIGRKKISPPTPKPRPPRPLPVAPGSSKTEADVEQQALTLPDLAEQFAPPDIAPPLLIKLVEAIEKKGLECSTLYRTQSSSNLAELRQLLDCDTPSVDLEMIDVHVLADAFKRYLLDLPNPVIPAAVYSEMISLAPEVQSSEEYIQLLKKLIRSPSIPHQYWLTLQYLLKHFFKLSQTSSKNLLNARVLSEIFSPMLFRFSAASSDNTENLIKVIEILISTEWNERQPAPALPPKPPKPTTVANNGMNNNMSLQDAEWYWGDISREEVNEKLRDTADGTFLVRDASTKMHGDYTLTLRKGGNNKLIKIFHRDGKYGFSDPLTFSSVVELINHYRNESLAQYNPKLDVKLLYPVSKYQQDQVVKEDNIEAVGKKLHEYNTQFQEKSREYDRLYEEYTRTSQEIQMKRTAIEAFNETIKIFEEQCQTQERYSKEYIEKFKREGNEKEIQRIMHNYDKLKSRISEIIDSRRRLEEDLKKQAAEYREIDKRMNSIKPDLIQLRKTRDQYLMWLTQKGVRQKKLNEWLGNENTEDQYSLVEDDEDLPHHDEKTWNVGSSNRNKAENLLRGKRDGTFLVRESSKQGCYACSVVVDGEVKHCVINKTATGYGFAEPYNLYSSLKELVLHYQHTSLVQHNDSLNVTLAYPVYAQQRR
From the text: as §1, §2, §3, §4, §5
as §6, with “[…]. […]” for “(APC).”

Chain of PI3Kdelta (O00329 whole entry, canonical isoform): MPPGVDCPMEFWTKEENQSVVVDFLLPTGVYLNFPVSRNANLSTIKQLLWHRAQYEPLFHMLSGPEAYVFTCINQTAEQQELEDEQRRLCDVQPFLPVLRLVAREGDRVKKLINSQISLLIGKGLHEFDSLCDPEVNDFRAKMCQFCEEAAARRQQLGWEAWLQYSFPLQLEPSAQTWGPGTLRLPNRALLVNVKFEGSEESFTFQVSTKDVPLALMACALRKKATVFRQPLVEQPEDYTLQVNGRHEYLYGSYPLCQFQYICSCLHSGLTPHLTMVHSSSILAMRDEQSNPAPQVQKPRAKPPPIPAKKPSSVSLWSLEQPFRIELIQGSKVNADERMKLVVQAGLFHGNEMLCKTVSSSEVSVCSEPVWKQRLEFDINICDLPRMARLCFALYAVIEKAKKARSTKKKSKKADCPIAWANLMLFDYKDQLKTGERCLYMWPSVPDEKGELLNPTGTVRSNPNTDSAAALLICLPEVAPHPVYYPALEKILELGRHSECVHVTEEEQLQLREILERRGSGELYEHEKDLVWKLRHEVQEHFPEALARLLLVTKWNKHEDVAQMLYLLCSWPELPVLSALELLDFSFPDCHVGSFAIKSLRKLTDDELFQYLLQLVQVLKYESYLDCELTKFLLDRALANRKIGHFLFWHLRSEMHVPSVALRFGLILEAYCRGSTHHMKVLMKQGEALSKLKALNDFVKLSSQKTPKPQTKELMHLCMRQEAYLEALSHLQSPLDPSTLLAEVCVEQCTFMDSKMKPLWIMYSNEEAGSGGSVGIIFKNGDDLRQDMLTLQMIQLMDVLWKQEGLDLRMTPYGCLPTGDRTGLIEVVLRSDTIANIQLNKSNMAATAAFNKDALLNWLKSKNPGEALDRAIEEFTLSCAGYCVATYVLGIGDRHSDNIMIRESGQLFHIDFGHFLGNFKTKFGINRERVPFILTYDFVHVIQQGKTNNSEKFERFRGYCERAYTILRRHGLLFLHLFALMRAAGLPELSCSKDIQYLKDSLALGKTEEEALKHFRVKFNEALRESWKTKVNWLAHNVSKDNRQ
Chain of PI3Kdelta (P27986 whole entry partner, canonical isoform): as the sequence (P27986 whole entry partner, canonical isoform) above

Turning to `CCn1c(-c2cnc(C)nc2)nc2c(N[C@H](C(=O)N3C[C@@H](C)O[C@@H](C)C3)C(C)(C)C)ncnc21` [Compound 2-42, N-[(1S)-1-{[(cis)-2,6-dimethylmorpholin-4-yl]carbonyl}-2,2-dimethylpropyl]-9-ethyl-8-(2-methylpyrimidin-5-yl)-9H-purin-6-amine], half-maximal inhibition against PI3Kdelta (IC50) was put at 5.3 nM. Besides, on PI3Kalpha, the “Selectivity versus PI3Kalpha” value is listed as more than 10.

With `CC[C@H](Nc1ncnc2c1nc(-c1cnc(C)nc1)n2CC)C(=O)N1CCC(C#N)CC1` [Compound 2-13, 1-[(2S)-2-{[9-ethyl-8-(2-methylpyrimidin-5-yl)-9H-purin-6-yl]amino}butanoyl]piperidine-4-carbonitrile], half-maximal inhibition on PI3Kdelta (IC50) required 26 nM. In addition, the “Selectivity versus PI3Kalpha” value on PI3Kalpha was more than 10.

In the case of `CCn1c(-c2cnc(C)nc2)nc2c(N[C@@H](CC(N)=O)C(=O)N3C[C@@H](C)O[C@@H](C)C3)ncnc21` [Compound 2-41, (3S)-4-[(cis)-2,6-dimethylmorpholin-4-yl]-3-{[9-ethyl-8-(2-methylpyrimidin-5-yl)-9H-purin-6-yl]amino}-4-oxobutanamide], the IC50 at PI3Kdelta was determined as 110 nM. Also, at PI3Kalpha, the “Selectivity versus PI3Kalpha” value was more than 10.

On to `CCn1ncc(-c2nc3c(NC(C)C(=O)N4CCOCC4)ncnc3n2C)c1C` (single isomer, unassigned) [Compound 1-7, (R or S)-8-(1-ethyl-5-methyl-1H-pyrazol-4-yl)-9-methyl-N-(1-methyl-2-morpholin-4-yl-2-oxoethyl)-9H-purin-6-amine], for which the IC50 against PI3Kdelta was determined as 24 nM. Also, on PI3Kalpha, the “Selectivity versus PI3Kalpha” value is on record as more than 10.

Molecule `CCn1c(-c2cnc(C)nc2)nc2c(NC(C(=O)N3C[C@@H](C)O[C@@H](C)C3)C3CC3)ccnc21` (single isomer, unassigned) [Compound 3-4, N-{(R or S)-1-cyclopropyl-2-[(cis)-2,6-dimethylmorpholin-4-yl]-2-oxoethyl}-3-ethyl-2-(2-methylpyrimidin-5-yl)-3H-imidazo[4,5-b]pyridin-7-amine] registered an IC50 on PI3Kdelta of 5.2 nM. In addition, the “Selectivity versus PI3Kalpha” value on PI3Kalpha was more than 10.

In turn, `CCC[C@H](Nc1ncnc2c1nc(-c1cnc(C)nc1)n2CC)C(=O)N1C[C@@H](C)O[C@@H](C)C1` [Compound 2-45, N-[(1S)-1-{[(cis)-2,6-dimethylmorpholin-4-yl]carbonyl}butyl]-9-ethyl-8-(2-methylpyrimidin-5-yl)-9H-purin-6-amine] returned an IC50 against PI3Kdelta of 26 nM. Further, the “Selectivity versus PI3Kalpha” value on PI3Kalpha is more than 10.

`CCn1c(-c2cnc(C)nc2)nc2c(N[C@@H](C)C(=O)N3C[C@@H](C)O[C@@H](C)C3)ncnc21` [Compound 2-39, N-{(1S)-2-[(cis)-2,6-dimethylmorpholin-4-yl]-1-methyl-2-oxoethyl}-9-ethyl-8-(2-methylpyrimidin-5-yl)-9H-purin-6-amine] had an IC50 against PI3Kdelta of 12 nM. In addition, at PI3Kalpha, the “Selectivity versus PI3Kalpha” value is given as more than 10.

With `CC[C@H](Nc1ncnc2c1nc(-c1cnc(C)nc1)n2CC)C(=O)N1CCOCC12CCC2` [Compound 2-27, 9-ethyl-8-(2-methylpyrimidin-5-yl)-N-[(1S)-1-(8-oxa-5-azaspiro[3.5]non-5-ylcarbonyl)propyl]-9H-purin-6-amine], half-maximal inhibition against PI3Kdelta (IC50) required 11 nM. In addition, the “Selectivity versus PI3Kalpha” value at PI3Kalpha was more than 10.

In the case of `CC[C@H](Nc1ncnc2c1nc(-c1cnc(C)nc1)n2CC)C(=O)N1CC2(CCCC2)C1` [Compound 2-21, N-[(1S)-1-(2-azaspiro[3.4]oct-2-ylcarbonyl)propyl]-9-ethyl-8-(2-methylpyrimidin-5-yl)-9H-purin-6-amine], on PI3Kdelta, the concentration for half-maximal inhibition (IC50) was found to be 14 nM. Also, the “Selectivity versus PI3Kalpha” value on PI3Kalpha is listed as more than 10.

In the case of `CCn1c(-c2cnc(C)nc2)nc2c(N[C@H](CC(=O)N3CCCC3)C(C)C)ncnc21` [Compound 2-62, 9-ethyl-N-[(1R)-1-(1-methylethyl)-3-oxo-3-pyrrolidin-1-ylpropyl]-8-(2-methylpyrimidin-5-yl)-9H-purin-6-amine], it took 100 nM to reach half-maximal inhibition on PI3Kdelta (IC50). Besides, the “Selectivity versus PI3Kalpha” value on PI3Kalpha is on record as more than 10.

In turn, `CC[C@H](Nc1ncnc2c1nc(-c1cnc(C)nc1)n2CC)C(=O)N1CC[C@H](F)C1` [Compound 2-15, 9-ethyl-N-[(1S)-1-{[(3S)-3-fluoropyrrolidin-1-yl]carbonyl}propyl]-8-(2-methylpyrimidin-5-yl)-9H-purin-6-amine] yielded a half-maximal inhibitory concentration (IC50) against PI3Kdelta of 37 nM. On PI3Kalpha, the “Selectivity versus PI3Kalpha” value is recorded as more than 10.

Turning to `CC[C@H](Nc1ncnc2c1nc(-c1cnc(C)nc1)n2CC)C(=O)N1CCOCC1C(C)C` (stereo partly drawn) [Compound 2-32, 9-ethyl-N-[(1S)-1-{[3-(1-methylethyl)morpholin-4-yl]carbonyl}propyl]-8-(2-methylpyrimidin-5-yl)-9H-purin-6-amine], at PI3Kdelta, inhibition was half-maximal at 83 nM (IC50). Besides, the “Selectivity versus PI3Kalpha” value at PI3Kalpha is more than 10.

Take `CCn1c(-c2cnc(C)nc2)nc2c(N[C@H](C(=O)N3C[C@@H](C)O[C@@H](C)C3)[C@@H](C)OC)ccnc21` [Compound 3-3, N-[(1S,2R)-1-{[(cis)-2,6-dimethylmorpholin-4-yl]carbonyl}-2-methoxypropyl]-3-ethyl-2-(2-methylpyrimidin-5-yl)-3H-imidazo[4,5-b]pyridin-7-amine]: on PI3Kdelta, the IC50 worked out at 8.6 nM. At PI3Kalpha, the “Selectivity versus PI3Kalpha” value is given as more than 10.

`CCn1c(-c2cnc(C)nc2)nc2c(NC3(C(=O)N4CCC(F)(F)CC4)CC3)ncnc21` [Compound 2-3, N-{1-[(4,4-difluoropiperidin-1-yl)carbonyl]cyclopropyl}-9-ethyl-8-(2-methylpyrimidin-5-yl)-9H-purin-6-amine]: on PI3Kdelta, inhibition was half-maximal at 590 nM (IC50). At PI3Kalpha, the “Selectivity versus PI3Kalpha” value is more than 10.

Molecule `CCC(Nc1ncnc2c1nc(-c1cnn(CC)c1C)n2C)C(=O)N1CCC(F)(F)CC1` (racemic) [Compound 1-5, (R and S)-N-{1-[(4,4-difluoropiperidin-1-yl)carbonyl]propyl}-8-(1-ethyl-5-methyl-1H-pyrazol-4-yl)-9-methyl-9H-purin-6-amine] gave an IC50 on PI3Kdelta of 9 nM. The “Selectivity versus PI3Kalpha” value on PI3Kalpha is more than 10.

`CCn1c(-c2cnc(C)nc2)nc2c(N[C@H](C(=O)N3C[C@@H](C)O[C@@H](C)C3)C(C)(C)O)ncnc21` [Compound 2-50, (3S)-4-[(cis)-2,6-dimethylmorpholin-4-yl]-3-{[9-ethyl-8-(2-methylpyrimidin-5-yl)-9H-purin-6-yl]amino}-2-methyl-4-oxobutan-2-ol]: on PI3Kdelta, the IC50 was 8.7 nM. The “Selectivity versus PI3Kalpha” value on PI3Kalpha is more than 10.
